Reference: patent publication US12391686B2, “Compounds and uses thereof” (Foghorn Therapeutics Inc., priority 2019, dated 2025)
Like-named read-outs stand apart in the source and are kept apart here.

How the values were obtained:
[1] = target: T1, BRD9 bromodomain (Flag-BRD9 P133-K239; Swiss Prot Q9H8M2) (Homo sapiens, UniProt Q9H8M2); assay: BRD9 Bromodomain TR-FRET Competition Binding Assay; settings: competition with biotinylated BRD9 ligand; 90 minutes at room temperature
T1 construct: His-Flag-BRD9 (P133-K239); Swiss Prot Q9H8M2; His6 with TEV site (mgsshhhhhhenlyfq/) (N, cleaved yes); made in house
T1 sequence (Q9H8M2 133-239): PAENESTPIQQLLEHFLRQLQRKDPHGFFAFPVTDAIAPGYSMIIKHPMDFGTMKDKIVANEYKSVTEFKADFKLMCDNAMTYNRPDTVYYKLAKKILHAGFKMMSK
Description: Procedure: His-Flag-BRD9 (P133-K239; Swiss Prot Q9H8M2; SEQ ID NO:1 mgsshhhhhhenlyfq/gdykddddkgslevlfqg/[…] […]) was cloned, expressed, purified, and then treated with TEV protease. Cleaved His tag was removed by purification. The binding of a biotinylated small molecule ligand of BRD9 was assessed via the LANCE® TR-FRET platform (PerkinElmer), and the compounds were assayed for inhibitory activity against this interaction.
Results: A mixture of biotinylated-ligand and SureLight™ Allophycocyanin-Streptavidin (APC-SA, PerkinElmer AD0201) in 50 mM HEPES (pH 7.4), 50 mM NaCl, 1 mM TCEP (pH 7), 0.01% (v/v) Tween-20, 0.01% (w/v) bovine serum albumin was added to a white 384-well PerkinElmer Proxiplate Plus plate. DMSO or 3-fold serially diluted compounds were then added to the Proxiplate followed by addition of Flag-BRD9. After a 10-minute incubation at room temperature, Eu-W1024 anti-FLAG (PerkinElmer, AD0273) was added. The final reaction mixture that contained 3.75 nM biotinylated ligand, 3 nM Flag-BRD9, 7.5 nM SureLight™ Allophycocyanin-Streptavidin, and 0.2 nM Eu-W1024 anti-FLAG was incubated at room temperature for 90 minutes.
The plates were then read on a PerkinElmer Envision plate reader to determine the ratio of emission at 665 nm over 615 nm. […]

[2] = target: T2, Nanoluciferase-BRD9 fusion protein (3×FLAG-NLuc-BRD9) in SYO-1 cells (Homo sapiens, UniProt Q9H8M2); assay: SYO1 BRD9 NanoLuc Degradation Assay; format: cell-based; settings: read-out: SYO1 BRD9-NanoLuc degradation IC50
T2 construct: expressed in transfected cells; host or cells: SYO-1
T2 sequence (Q9H8M2 1-597): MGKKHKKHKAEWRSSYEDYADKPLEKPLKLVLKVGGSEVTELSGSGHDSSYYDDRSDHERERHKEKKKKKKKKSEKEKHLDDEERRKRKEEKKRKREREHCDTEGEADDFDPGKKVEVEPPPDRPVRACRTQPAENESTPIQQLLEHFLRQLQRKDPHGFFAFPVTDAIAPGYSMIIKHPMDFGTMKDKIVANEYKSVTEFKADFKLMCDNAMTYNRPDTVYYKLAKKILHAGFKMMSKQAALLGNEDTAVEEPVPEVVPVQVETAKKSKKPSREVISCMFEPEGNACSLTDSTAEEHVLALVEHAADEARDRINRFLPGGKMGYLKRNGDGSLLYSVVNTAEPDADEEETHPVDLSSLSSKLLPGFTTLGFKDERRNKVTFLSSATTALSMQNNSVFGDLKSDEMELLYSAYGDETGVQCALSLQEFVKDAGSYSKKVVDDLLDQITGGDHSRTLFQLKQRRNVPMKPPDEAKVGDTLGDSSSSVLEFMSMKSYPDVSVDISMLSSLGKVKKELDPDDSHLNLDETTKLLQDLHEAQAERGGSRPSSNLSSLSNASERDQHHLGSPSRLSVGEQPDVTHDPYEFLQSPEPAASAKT
Method in brief: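 NanoLuc signal, read by Nano-Glo luminescence after 6 h compound exposure, gives % inhibition against DMSO-treated cells (high control) and cells given 1 μM of a standard BRD9 degrader (low control). Test compounds ran as 10-point 3-fold series, top 1 μM final, in duplicate on SYO-1 cells stably expressing 3×FLAG-NLuc-BRD9.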

[3] = 6 hours, SYO-1 cells expressing 3×FLAG-NLuc-BRD9, top dose 1 μM

| Structure (SMILES) | IC50 [1] [nM] | DC50 [2, 3] [nM] | DC50 ([2]; Table 6C, SYO-1 cells expressing 3×FLAG-NLuc-BRD9, 6 hours incubation, 1 μM top dose) [nM] |
| --- | --- | --- | --- |
| COc1cc(-c2cn(C)c(=O)c3cc(N(C)CC(=O)NCCCCCOc4cccc5c4C(=O)N(C4CCC(=O)NC4=O)C5=O)ncc23)cc(OC)c1CN(C)C (stereo not drawn) [Compound D12, 2-[(8-[4-[(dimethylamino)methyl]-3,5-dimethoxyphenyl]-6-methyl-5-oxo-2,6-naphthyridin-3-yl)(methyl)amino]-N-(5-[[2-(2,6-dioxopiperidin-3-yl)-1,3-dioxoisoindol-4-yl]oxy]pentyl)acetamide formic acid] | < 10 | ≥ 10 |  |
| COc1cc(-c2cn(C)c(=O)c3cnc(NCCCCCOc4cccc5c4C(=O)N(C4CCC(=O)NC4=O)C5=O)cc23)c(OC)cc1CN(C)C (stereo not drawn) [Compound D6, 4-((5-((5-(4-((dimethylamino)methyl)-2,5-dimethoxyphenyl)-7-methyl-8-oxo-7,8-dihydro-2,7-naphthyridin-3-yl)amino)pentyl)oxy)-2-(2,6-dioxopiperidin-3-yl)isoindoline-1,3-dione formic acid] | ≥ 10 | ≥ 10 |  |
| COc1cc(-c2cn(C)c(=O)c3cc(NCCCCCOc4cccc5c4C(=O)N(C4CCC(=O)NC4=O)C5=O)ncc23)c(OC)cc1CN(C)C (stereo not drawn) [Compound D25, 4-((5-((8-(4-((dimethylamino)methyl)-2,5-dimethoxyphenyl)-6-methyl-5-oxo-5,6-dihydro-2,6-naphthyridin-3-yl)amino)pentyl)oxy)-2-(2,6-dioxopiperidin-3-yl)isoindoline-1,3-dione] | ≥ 1000 | ≥ 100 |  |
| COc1cc(-c2cn(C)c(=O)c3cc(NCCOCCOCCNc4cccc5c4C(=O)N(C4CCC(=O)NC4=O)C5=O)ncc23)cc(OC)c1CN(C)C (stereo not drawn) [Compound D24, 4-[[2-(2-[2-[(8-[4-[(dimethylamino)methyl]-3,5-dimethoxyphenyl]-6-methyl-5-oxo-2,6-naphthyridin-3-yl)amino]ethoxy]ethoxy)ethyl]amino]-2-(2,6-dioxopiperidin-3-yl)isoindole-1,3-dione] | ≥ 10 | ≥ 10 |  |
| COc1cc(-c2cn(C)c(=O)c3cnc(N(C)C)cc23)cc(OC)c1CN1CC[C@H]1C(=O)N(C)Cc1cccc2c1C(=O)N(C1CCC(=O)NC1=O)C2=O (stereo partly drawn) [Compound D4, (2S)-1-(4-(6-(dimethylamino)-2-methyl-1-oxo-1,2-dihydro-2,7-naphthyridin-4-yl)-2,6-dimethoxybenzyl)-N-((2-(2,6-dioxopiperidin-3-yl)-1,3-dioxoisoindolin-4-yl)methyl)-N-methylazetidine-2-carboxamide formic acid] | < 10 | ≥ 100 |  |
| CNc1cc2c(=O)n(C)cc(-c3cc(OC)c(CN4CC(C(=O)NCCCCCOc5cccc6c5C(=O)N(C5CCC(=O)NC5=O)C6=O)C4)c(OC)c3)c2cn1 (stereo not drawn) [Compound D7, 1-([2,6-dimethoxy-4-[2-methyl-7-(methylamino)-1-oxo-2,6-naphthyridin-4-yl]phenyl]methyl)-N-(5-[[2-(2,6-dioxopiperidin-3-yl)-1,3-dioxoisoindol-4-yl]oxy]pentyl)azetidine-3-carboxamide formic acid] | < 10 | < 10 |  |
| COc1cc(-c2cn(C)c(=O)c3cc(NCC(=O)N(C)C)ncc23)cc(OC)c1CN(C)C [Compound B6, 2-[(8-[4-[(dimethylamino)methyl]-3,5-dimethoxyphenyl]-6-methyl-5-oxo-2,6-naphthyridin-3-yl)amino]-N,N-dimethylacetamide formic acid] | ≥ 10 |  |  |
| CNc1cc2c(-c3cc(OC)c(CN(C)C)c(OC)c3)cn(C)c(=O)c2cn1 [Compound B1, 4-[4-[(dimethylamino)methyl]-3,5-dimethoxyphenyl]-2-methyl-6-(methylamino)-1,2-dihydro-2,7-naphthyridin-1-one] | < 10 |  |  |
| COc1cc(-c2cn(C)c(=O)c3cnc(N)cc23)cc(OC)c1CN(C)C [Compound B4, 6-amino-4-[4-[(dimethylamino)methyl]-3,5-dimethoxyphenyl]-2-methyl-1,2-dihydro-2,7-naphthyridin-1-one] | ≥ 10 |  |  |
| COc1cc(-c2cn(C)c(=O)c3cc(N)ncc23)cc(OC)c1CN(C)C [Compound B5, 7-amino-4-(4-((dimethylamino)methyl)-3,5-dimethoxyphenyl)-2-methyl-2,6-naphthyridin-1(2H)-one] | ≥ 10 |  |  |
| COc1cc(-c2cn(C)c(=O)c3cnc(N4CC5(CC5)C4)cc23)cc(OC)c1CN1CCC(CN2CCC3(CC2)CN(c2ccc4c(c2)C(=O)N(C2CCC(=O)NC2=O)C4)C3)CC1 (stereo not drawn) [Compound D205] |  |  | 10 to 100 |

Second part, the compound after the results:

| IC50 [1] [nM] | DC50 [2, 3] [nM] | DC50 ([2]; Table 6C, SYO-1 cells expressing 3×FLAG-NLuc-BRD9, 6 hours incubation, 1 μM top dose) [nM] | Structure (SMILES) |
| --- | --- | --- | --- |
| < 10 | < 10 |  | COc1cc(-c2cn(C)c(=O)c3cnc(N(C)C)cc23)cc(OC)c1CN(C)CCOCCN1CCN(c2ccc3c(c2)C(=O)N(C2CCC(=O)NC2=O)C3=O)CC1 (stereo not drawn) [Compound D21, 5-[4-(2-[2-[([4-[6-(dimethylamino)-2-methyl-1-oxo-2,7-naphthyridin-4-yl]-2,6-dimethoxyphenyl]methyl)(methyl)amino]ethoxy]ethyl)piperazin-1-yl]-2-(2,6-dioxopiperidin-3-yl)isoindole-1,3-dione] |
| < 10 | < 10 |  | COc1cc(-c2cn(C)c(=O)c3cnc(N(C)C)cc23)cc(OC)c1CN1CC(C(=O)NCCCCCOc2cccc3c2C(=O)N(C2CCC(=O)NC2=O)C3=O)C1 (stereo not drawn) [Compound D1, 1-([4-[6-(dimethylamino)-2-methyl-1-oxo-1,2-dihydro-2,7-naphthyridin-4-yl]-2,6-dimethoxyphenyl]methyl)-N-(5-[[2-(2,6-dioxopiperidin-3-yl)-1,3-dioxo-2,3-dihydro-1H-isoindol-4-yl]oxy]pentyl)azetidine-3-carboxamide] |
| ≥ 10 | ≥ 100 |  | COc1cc(-c2cn(C)c(=O)c3cnc(N(C)CCOCCOCCNc4ccc5c(c4)C(=O)N(C4CCC(=O)NC4=O)C5=O)cc23)cc(OC)c1CN(C)C (stereo not drawn) [Compound D22, 5-[10-(5-[4-[(dimethylamino)methyl]-3,5-dimethoxyphenyl]-7-methyl-8-oxo-2,7-naphthyridin-3-yl)-4,7-dioxa-1,10-diazaundecan-1-yl]-2-(2,6-dioxopiperidin-3-yl)isoindole-1,3-dione formic acid] |
| < 10 | < 10 |  | CNc1cc2c(=O)n(C)cc(-c3cc(OC)c(CN4CCC(CCN5CCN(c6ccc7c(c6)C(=O)N(C6CCC(=O)NC6=O)C7=O)CC5)CC4)c(OC)c3)c2cn1 (stereo not drawn) [Compound D30, 5-(4-[2-[1-([2,6-dimethoxy-4-[2-methyl-7-(methylamino)-1-oxo-2,6-naphthyridin-4-yl]phenyl]methyl)piperidin-4-yl]ethyl]piperazin-1-yl)-2-(2,6-dioxopiperidin-3-yl)isoindole-1,3-dione formic acid] |
| < 10 |  |  | COc1cc(-c2cn(C)c(=O)c3cnc(N(C)C)cc23)cc(OC)c1CN(C)C [Compound B2, 6-(dimethylamino)-4-[4-[(dimethylamino)methyl]-3,5-dimethoxyphenyl]-2-methyl-1,2-dihydro-2,7-naphthyridin-1-one] |
| ≥ 10 |  |  | CNc1cc2c(=O)n(C)cc(-c3cc(OC)c(CN(C)C)c(OC)c3)c2cn1 [Compound B3, 4-[4-[(Dimethylamino)methyl]-3,5-dimethoxyphenyl]-2-methyl-7-(methylamino)-1,2-dihydro-2,6-naphthyridin-1-one] |
